Laboratory results reported in patent US20240261306A1, “FORMULATIONS OF PSILOCYBIN” (CYBIN IRL LIMITED, priority 2021, published 2024).
Marks after values point to notes of the source that are not given here.

Tests used:
[1] = XRPD of freeze-dried solid dispersions and admixtures; assay type: physicochemical; settings: as prepared, solid form of psilocybin (PY) in freeze-dried dispersion, physical mixture or starting material
Protocol: The samples were prepared in silicon low background holders using light manual pressure to keep the sample surface flat and level with the reference surface of the sample holder. The single crystal Si low background holder has a circular recess (10 mm diameter and about 0.2 mm depth) that holds the sample.
The Rigaku Smart-Lab diffraction system used was configured for Bragg-Brentano reflection geometry using a line source X-ray beam. The Bragg-Brentano geometry was controlled by passive divergence and receiving slits with the sample itself acting as the focusing component for the optics. The figures were created using PlotMon V2.1.1.0.
High-resolution XRPD analysis was performed using Rigaku Smart-Lab diffraction system configured for Debye-Scherrer transmission geometry. The Debye-Scherrer convergent beam geometry utilizes a curved x-ray mirror to focus the incident beam through the sample and onto the detector plane. The axial divergence of the X-ray beam was controlled by 5.0° Soller slits in both the incident and diffracted beam paths.
Freeze-dried solid dispersions of Examples 1-5, and corresponding Reference Examples, were characterized using X-ray powder diffraction (XRPD).

[2] = XRPD and mDSC characterization of spray dried solid dispersions (t=0); assay type: physicochemical; settings: Characterization (t = 0)
Protocol: X-ray power diffraction (XRPD): XRPD patterns were collected on a Bruker AXS D2 diffractometer using Cu Kα radiation (30 kV, 10 mA), θ-θ geometry, using a LynxEye detector from 5-42° […].
The details of the data collection are: • Angular range: 5 to 42° 2θ • Step size: 0.024° 2θ • Collection time: 0.1 seconds per step.
Samples were run under ambient conditions and prepared as flat plate specimens using powder without grinding. Approximately 1-2 mg of the sample was lightly pressed on a silicon wafer to obtain a flat surface.
Modulated differential scanning calorimetry (mDSC): TOPEM® is a temperature modulated DSC method which differs from conventional DSC in allowing the total heat flow to be separated into reversing and non-reversing heat flow components. Such techniques help distinguish between processes or transitions that overlap or lie very close to one another. The glass transition temperature (Tg) was determined from the reversible heatflow component.
TOPEM® DSC data were collected on a Mettler DSC 3+ equipped with a 34 position auto-sampler. The instrument was calibrated for energy and temperature using certified indium. Typically, 3-5 mg of each sample, in a pin-holed aluminium pan, was heated at 2 K·min^−1 from 30° C. to 220° C. with a pulse height of 0.64 K and a pulse width 15-30 sec. A nitrogen purge at 50 mL·min^−1 was maintained over the sample. […]

Row | Structure (SMILES) | XRPD Results [1] | XRPD Results ([1]; listed as crystalline psilocybin starting material) | XRPD [2] | Tg ([2]; mDSC) [°C]
1 | CN(C)CCc1c[nH]c2cccc(OP(=O)(O)O)c12 [Crystalline PY starting material, 3-(2-(dimethylamino)ethyl)-1H-indol-4-yl dihydrogen phosphate] | crystalline PY (methanol solvate)^a | crystalline psilocybin methanol solvate with a small quantity of Form B |  | 
2 | CN(C)CCc1c[nH]c2cccc(OP(=O)(O)O)c12 [Psilocybin (PY), 3-(2-(dimethylamino)ethyl)-1H-indol-4-yl dihydrogen phosphate] |  |  | Amorphous | 161
